From patent US20050215517A1, “Use of an anti-endotoxin drug in the prevention and treatment of disease” (priority 1999, published 2005) come the findings set out here.

Data set [1] can be described thus: Relative toxicity of E5564 versus B531 (animal studies). The note with it: E5564 compared with B531.
A further data set relates to LPS-induced IL-6 release. Briefly: Inhibition of LPS-induced IL-6 release in ex vivo blood samples during intravenous infusion of E5564. Set-up: species or system beagle dogs. Here is the method: (§1) FIG. 5 is a pair of graphs showing ex vivo analysis of active E5564 during intravenous infusion. Activity of E5564 was determined during intravenous infusion of 0.24 mg/kg/hour E5564 (□,∘) or 2.4 mg/kg/hour E5564 (▪,●) into female (upper panel) or male (lower panel) beagle dogs. At the indicated times, blood was drawn and analyzed for E5564 activity by adding 1 ng/ml LPS, incubating for three hours at 37° C., and assaying the plasma fraction for IL-6 by bioassay, as is described in the Materials and Methods section (below). Each value represents the mean±standard deviation of samples assayed in duplicate from each animal. The zero hour sample was taken prior to infusion.
as §1, with “FIG. 6” for “FIG. 5”, “adding 10” for “adding 1”
as §1, with “FIG. 7” for “FIG. 5”, “adding 100” for “adding 1”
To assess the activity of E5564 over multiple time points from a single treated animal, we employed an ex vivo assay, as is mentioned above, to test for active drug in samples of blood drawn from a treated animal. Samples of blood were drawn from beagle dogs infused with E5564 over a period of 24 hours. One dog of each sex was tested under each of two dose regimens: a low dose of 0.24 mg/kg/hour and a high dose of 2.4 mg/kg/hour.
Blood samples were taken from these dogs at predose, 4 hours after initiation of infusion, and 24 hours after initiation of infusion. The blood samples were challenged with 0, 1, 10, or 100 ng/ml LPS, and then incubated for three hours. The samples were then analyzed for activation by LPS, using induction of cytokine response as a readout.
LPS from Escherichia coli (0111:B4) was purchased from List Biologicals (Campbell, Calif.). LPS was dissolved in sterile water at 1 mg/ml and stored at −20° C. Prior to use, LPS was sonicated in a bath sonicator (VW-380; Heat Systems-Ultrasonics Inc., Farmingdale, N.Y.) for 1-2 minutes immediately before use and diluted into Ca^2+, Mg^2+ free Hanks balanced salt solution (HBSS; Sigma).
Dogs were treated with E5564 (0.24 or 2.4 mg/kg/hour) dissolved in a mixture of placebo solution (10% lactose monohydrate, 0.045% Na2HPO4.7H2O, 0.035% NaH2PO4.H2O, 0.006% NaOH; pH 7.4±0.3) and 5% dextrose (1:4) by intravenous infusion via indwelling catheter for 24 hours at a rate of 2 mg/kg/hour.
(for time zero samples), or incubated with the indicated concentrations of LPS for three hours. Plasma was then prepared and immediately frozen at −80° C. Samples were stored at −80° C. until assay.
B9 cells were the gift of Dr. Mary Rodrick (Beth Israel Deaconess Hospital, Boston, Mass.). They were grown in Iscove's DMEM medium containing 5% fetal bovine serum (FBS), […] 2-mercaptoethanol, 2 mM L-glutamine, and 100 U/ml penicillin/streptomycin. […]

With `CCCCCC/C=C\CCCCCCCCCC(=O)N[C@H]1[C@H](OC[C@H]2O[C@H](OP(=O)(O)O)[C@H](NC(=O)CC(=O)CCCCCCCCCCC)[C@@H](OCCCCCCCCCC)[C@@H]2O)O[C@H](COC)[C@@H](OP(=O)(O)O)[C@@H]1OCC[C@@H](CCCCCCC)OC` [E5564, α-D-Glucopyranose, 3-O-decyl-2-deoxy-6-O-[2-deoxy-3-O-[(3R)-3-methoxydecyl)-6-O-methyl-2-[[(11Z)-1-oxo-11-octadecenyl)amino]-4-O-phosphono-β-D-glucopyranosyl]-2-[(1,3-dioxotetradecyl)amino]-,1-(dihydrogen phosphate)], the “Toxicity relative to B531” value in data set [1] was “about twenty-fold less toxic than B531”. Further, the “Inhibition of response to LPS (IL-6) vs predose” value with LPS-induced IL-6 release (infusion 0.24 mg/kg/hour, 1 ng/ml LPS, 4 hours after beginning infusion) was ≥ 98%; in the data set on LPS-induced IL-6 release (infusion 0.24 mg/kg/hour, 1 ng/ml LPS, end of infusion (24 hours)) it was “complete”; in the data set with LPS-induced IL-6 release (infusion 0.24 mg/kg/hour, 10 ng/ml LPS, end of infusion (24 hours)), ~85%; with LPS-induced IL-6 release (infusion 2.4 mg/kg/hour, 1 ng/ml LPS, 4 hours after beginning infusion), “complete inhibition”; in the data set with LPS-induced IL-6 release (infusion 2.4 mg/kg/hour, 1 ng/ml LPS, end of infusion (24 hours)) it was “complete”; with LPS-induced IL-6 release (infusion 2.4 mg/kg/hour, 10 ng/ml LPS, 4 hours), “nearly completely inhibited”. Besides, the “Inhibition of response to LPS (IL-6) vs predose” value with LPS-induced IL-6 release (infusion 2.4 mg/kg/hour, 10 ng/ml LPS, end of infusion (24 hours)) is “complete”; in the data set with LPS-induced IL-6 release (infusion 2.4 mg/kg/hour, 100 ng/ml LPS, 4 hours) it was “nearly completely inhibited”; in the data set with LPS-induced IL-6 release (infusion 2.4 mg/kg/hour, 100 ng/ml LPS, end of infusion (24 hours)) it was > 90%. Also, in the data set on LPS-induced IL-6 release (infusion 0.24 mg/kg/hour, 100 ng/ml LPS, end of infusion (24 hours)), the “Maximum inhibition of response to LPS (IL-6) vs predose” value is on record as 34-52%.
